From patent US9387238B2, “CDCA1 epitope peptides and vaccines containing the same” (OncoTherapy Science, Inc., priority 2008, dated 2016)

How the values were obtained:
[1] = tested on: peptide-pulsed A24LCL cells; assay: IFN-gamma ELISA assay on CTL lines established with CDCA1 peptides; type: cell-based, human; details: CTL line vs peptide-pulsed target cells, compared with target cells not pulsed
Description: CTLs were expanded in culture using the method similar to the one described by Riddell et al. (Walter E A et al., N Engl J Med 1995 Oct. 19, 333(16): 1038-44; Riddell S R et al., Nat Med 1996 February, 2(2): 216-23). A total of 5×10^4 CTLs were suspended in 25 ml of AIM-V/5% AS medium with 2 kinds of human B-lymphoblastoid cell lines, inactivated by MMC, in the presence of 40 ng/ml of anti-CD3 monoclonal antibody (Pharmingen). One day after initiating the cultures, 120 IU/ml of IL-2 were added to the cultures. The cultures were fed with fresh AIM-V/5% AS medium containing 30 IU/ml of IL-2 on days 5, 8 and 11 (Tanaka H et al., Br J Cancer 2001 Jan. 5, 84(1): 94-9; Umano Y et al., Br J Cancer 2001 Apr. 20, 84(8): 1052-7; Uchida N et al., Clin Cancer Res 2004 Dec. 15, 10(24): 8577-86; Suda T et al., Cancer Sci 2006 May, 97(5): 411-9; Watanabe T et al., Cancer Sci 2005 August, 96(8): 498-506).
(§1) To examine specific CTL activity, interferon (IFN)-gamma enzyme-linked immunospot (ELISPOT) assay and IFN-gamma enzyme-linked immunosorbent assay (ELISA) were performed. Specifically, peptide-pulsed A24LCL (1×10^4/well) was prepared as stimulator cells. Cultured cells in 48 wells were used as responder cells. IFN-gamma ELISPOT assay and IFN-gamma ELISA assay were performed under manufacture procedure.

[2] = tested on: peptide-pulsed A24LCL cells; assay: IFN-gamma ELISPOT assay on CTLs induced with CDCA1 peptides; type: cell-based, human; details: CTLs from HLA-A*2402 positive donor vs peptide-pulsed target cells, compared with the control
Source text: Monocyte-derived dendritic cells (DCs) were used as antigen-presenting cells (APCs) to induce cytotoxic T lymphocyte (CTL) responses against peptides presented on human leukocyte antigen (HLA). DCs were generated in vitro as described elsewhere (Nakahara S et al., Cancer Res 2003 Jul. 15, 63(14): 4112-8). Specifically, peripheral blood mononuclear cells (PBMCs) isolated from a normal volunteer (HLA-A*2402 positive) by Ficoll-Plaque (Pharmacia) solution were separated by adherence to a plastic tissue culture dish (Becton Dickinson) so as to enrich them as the monocyte fraction. The monocyte-enriched population was cultured in the presence of 1000 U/ml of granulocyte-macrophage colony-stimulating factor (GM-CSF) (R&D System) and 1000 U/ml of interleukin (IL)-4 (R&D System) in AIM-V Medium (Invitrogen) containing 2% heat-inactivated autologous serum (AS). After 7 days of culture, the cytokine-induced DCs were pulsed with 20 micro g/ml of each of the synthesized peptides in the presence of 3 micro g/ml of beta 2-microglobulin for 3 hr at 37 degrees C. in AIM-V Medium. The generated cells appeared to express DC-associated molecules, such as CD80, CD83, CD86 and HLA class II, on their cell surfaces (data not shown). These peptide-pulsed DCs were then inactivated by Mitomycin C (MMC) (30 micro g/ml for 30 min) and mixed at a 1:20 ratio with autologous CD8+ T cells, obtained by positive selection with CD8 Positive Isolation Kit (Dynal). These cultures were set up in 48-well plates (Corning); each well contained 1.5×10^4 peptide-pulsed DCs, 3×10^5 CD8+ T cells and 10 ng/ml of IL-7 (R&D System) in 0.5 ml of AIM-V/2% AS medium. Three days later, these cultures were supplemented with IL-2 (CHIRON) to a final concentration of 20 IU/ml. On day 7 and 14, the T cells were further stimulated with the autologous peptide-pulsed DCs. The DCs were prepared each time by the same way described above. CTL was tested against peptide-pulsed A24LCL cells after the 3rd round of peptide stimulation on day 21 (Tanaka H et al., Br J Cancer 2001 Jan. 5, 84(1): 94-9; Umano Y et al., Br J Cancer 2001 Apr. 20, 84(8): 1052-7; Uchida N et al., Clin Cancer Res 2004 Dec. 15, 10(24): 8577-86; Suda T et al., Cancer Sci 2006 May, 97(5): 411-9; Watanabe T et al., Cancer Sci 2005 August, 96(8): 498-506).
as §1

[3] = tested on: COS7 cells transfected with CDCA1 and HLA-A*2402; assay: Specific CTL activity against target cells exogenously expressing CDCA1 and HLA-A*2402; type: cell-based
Source text: The cDNA encoding an open reading frame of target genes or HLA-A24 was amplified by PCR. The PCR-amplified product was cloned into pCAGGS vector. The plasmids were transfected into COS7, which is the target genes and HLA-A24-null cell line, using lipofectamine 2000 (Invitrogen) according to the manufacturer's recommended procedures. After 2 days from transfection, the transfected cells were harvested with versene (Invitrogen) and used as the target cells (5×10^4 cells/well) for CTL activity assay.
The established CTL lines raised against these peptides were examined for their ability to recognize target cells that exogenously express CDCA1 and HLA-A*2402 molecule. Specific CTL activity against COS7 cells which transfected with both the full length of CDCA1 and HLA-A*2402 molecule gene (a specific model for the target cells that exogenously express CDCA1 and HLA-A*2402 gene) was tested using the CTL lines raised by corresponding peptide as the effecter cells. COS7 cells transfected with either full length of CDCA1 genes or HLA-A*2402 were prepared as control.

[4] = tested on: target cells pulsed with peptide; assay: IFN-gamma ELISA assay on CTL clone established by limiting dilution; type: cell-based, human; details: CTL clone by limiting dilution vs peptide-pulsed target cells, compared with the control
Description: The dilutions were made to have 0.3, 1, and 3 CTLs/well in 96 round-bottomed micro titer plate (Nalge Nunc International). CTLs were cultured with 1×10^4 cells/well of 2 kinds of human B-lymphoblastoid cell lines, 30 ng/ml of anti-CD3 antibody, and 125 U/ml of IL-2 in a total of 150 micro 1/well of AIM-V Medium containing 5% AS. 50 micro 1/well of IL-2 were added to the medium 10 days later so to reach a final concentration of 125 U/ml IL-2. CTL activity was tested on the 14th day, and CTL clones were expanded using the same method as described above (Uchida N et al., Clin Cancer Res 2004 Dec. 15, 10(24): 8577-86; Suda T et al., Cancer Sci 2006 May, 97(5): 411-9; Watanabe T et al., Cancer Sci 2005 August, 96(8): 498-506).
as §1

| Sequence | IFN-gamma production of CTL line (ELISA) [1] | IFN-gamma production of induced CTLs (ELISPOT) [2] | specific CTL activity ([3]; CTL clone vs COS7 cells transfected with both CDCA1 and HLA-A*2402) | specific CTL activity ([3]; CTL clone vs target cells expressing either HLA-A*2402 or CDCA1 (controls)) | IFN-gamma production of CTL clone (ELISA) [4] |
| --- | --- | --- | --- | --- | --- |
| IYMRALQIVY [SEQ ID NO: 11, 10-mer peptide derived from CDCA1, start position 48] | potent IFN-gamma production | potent IFN-gamma production | – | – | – |
| KTEENSFKRL [SEQ ID NO: 4, 10-mer peptide derived from CDCA1, start position 335] | potent IFN-gamma production | potent IFN-gamma production | – | – | – |
| MYPHLMEGFL [SEQ ID NO: 2, 10-mer peptide derived from CDCA1, start position 74] | no specific IFN-gamma production | no specific IFN-gamma production | – | – | – |
| RFLSGIINFI [SEQ ID NO: 3, 10-mer peptide derived from CDCA1, start position 119] | potent IFN-gamma production | potent IFN-gamma production | – | – | – |
| RYNVAEIVI [SEQ ID NO: 22, 9-mer peptide derived from CDCA1, start position 8] | potent IFN-gamma production | potent IFN-gamma production | – | – | – |
| SFPRYNVAEI [SEQ ID NO: 14, 10-mer peptide derived from CDCA1, start position 5] | potent IFN-gamma production | potent IFN-gamma production | – | – | – |
| VYGIRLEHF [SEQ ID NO: 23, 9-mer peptide derived from CDCA1, start position 56] | potent IFN-gamma production | potent IFN-gamma production | high specific CTL activity | no significant specific CTL activity | potent IFN-gamma production |
